Measured values reported in ChEMBL document CHEMBL5352385, “Marine natural products and their synthetic analogs as promising antibiofilm agents for antibiotics discovery and development” (Eur J Med Chem, 2022).
One block for each molecule: values may come before it.

Experiments:
Pseudomonas aeruginosa [1] = assay: Antibiofilm activity against Pseudomonas aeruginosa PA01 at 128 ug/ml relative to control; type: functional; details: dose 128 µg/ml
[2] = test system: Staphylococcus epidermidis; assay: Antibiofilm activity against Staphylococcus epidermidis; type: functional
Pseudomonas aeruginosa [3] = assay: Antibiofilm activity against Pseudomonas aeruginosa at 100 ug/ml relative to control; type: functional; details: dose 100 µg/ml
Staphylococcus aureus [4] = assay: Antibiofilm activity against Staphylococcus aureus at 100 ug/ml relative to control; type: functional; details: dose 100 µg/ml
Pseudomonas aeruginosa [5] = assay: Antibiofilm activity against Pseudomonas aeruginosa PA01 assessed as inhibition of biofilm formation at 25 ug/ml by microdilution plate method relative to control; type: functional; parameters: scale not given: the % may be the effect or the level left; details: dose 25 µg/ml
Pseudomonas aeruginosa [6] = assay: Antibiofilm activity against Pseudomonas aeruginosa PA01 assessed as inhibition of biofilm formation at 100 ug/ml by microdilution plate method relative to control; type: functional; parameters: scale not given: the % may be the effect or the level left; details: dose 100 µg/ml
Bacillus pumilus = assay: Antibiofilm activity against Bacillus pumilus TiO1 assessed as inhibition of biofilm formation at 12.5 ug/ml by microdilution plate method relative to control; type: functional; parameters: scale not given: the % may be the effect or the level left; details: dose 12.5 µg/ml
Candida albicans [7] = assay: Antibiofilm activity against Candida albicans BH assessed as inhibition of biofilm formation at 25 ug/ml by microdilution plate method relative to control; type: functional; parameters: scale not given: the % may be the effect or the level left; details: dose 25 µg/ml
Candida albicans [8] = assay: Antibiofilm activity against Candida albicans assessed as reduction in biofilm formation at 50 ug/ml measured after 48 hrs by crystal violet staining based analysis relative to control; type: functional; parameters: scale not given: the % may be the effect or the level left; details: dose 50 µg/ml
Escherichia coli = assay: Antibiofilm activity against Escherichia coli at 31.3 ug/ml relative to control; type: functional; details: dose 31.3 µg/ml
Staphylococcus aureus [9] = assay: Antibiofilm activity against methicillin-sensitive Staphylococcus aureus ATCC 35556 incubated for 24 hrs; type: functional
[10] = test system: Staphylococcus epidermidis; assay: Antibiofilm activity against […] incubated for 24 hrs; type: functional
Staphylococcus aureus [11] = assay: Antibiofilm activity against methicillin-resistant Staphylococcus aureus ATCC 43866 incubated for 24 hrs; type: functional
Pseudomonas aeruginosa [12] = assay: Antibiofilm activity against Pseudomonas aeruginosa PAO1 at 500 ug/ml incubated for 24 hrs by crystal violet staining based analysis relative to control; type: functional; details: dose 500 µg/ml
Acinetobacter baumannii [13] = assay: Antibiofilm activity against Acinetobacter baumannii ATCC […] assessed as reduction in biofilm formation incubated for 24 hrs by crystal violet staining based analysis; type: functional
Acinetobacter baumannii [14] = assay: Antibiofilm activity against Acinetobacter baumannii ATCC 19606 assessed as reduction in biofilm formation incubated for 24 hrs by crystal violet staining based analysis; type: functional
Streptococcus mutans [15] = assay: Antibiofilm activity against Streptococcus mutans UA159 assessed as inhibition of biofilm formation at 3.0 ug/ml relative to control; type: functional; parameters: scale not given: the % may be the effect or the level left; details: dose 3 µg/ml
Streptococcus mutans [16] = assay: Antibiofilm activity against clinical isolates Streptococcus mutans assessed as inhibition of biofilm formation at 3.0 ug/ml relative to control; type: functional; parameters: scale not given: the % may be the effect or the level left; details: dose 3 µg/ml
Staphylococcus aureus [17] = assay: Antibiofilm activity against methicillin-resistant Staphylococcus aureus CH 10850 at 33.2 ug/ml relative to control; type: functional; details: dose 33.2 µg/ml
Staphylococcus aureus [18] = assay: Antibiofilm activity against Staphylococcus aureus ATCC 29213 at 0.5 to 4 ug/ml relative to control; type: functional; details: dose 0.5-4 µg/ml; at 0.5 to 4 µg/mL
Staphylococcus aureus [19] = assay: Antibiofilm activity against methicillin-resistant Staphylococcus aureus 33591 assessed as reduction in biofilm formation at 50 ug/ml measured after 24 hrs by crystal violet staining based analysis relative to control; type: functional; parameters: scale not given: the % may be the effect or the level left; details: dose 50 µg/ml
Bacillus subtilis = assay: Antibiofilm activity against Bacillus subtilis ATCC 6633 at 8 to 16 ug/ml incubated for 24 hrs by crystal violet staining based analysis relative to control; type: functional; details: dose 8-16 µg/ml, at 8 to 16 µg/mL
Staphylococcus aureus [20] = assay: Antibiofilm activity against Staphylococcus aureus ATCC 25923 at 8 to 16 ug/ml incubated for 24 hrs by crystal violet staining based analysis relative to control; type: functional; details: dose 8-16 µg/ml, at 8 to 16 µg/mL
Enterococcus faecalis = assay: Antibiofilm activity against Enterococcus faecalis W1 at 8 to 16 ug/ml incubated for 24 hrs by crystal violet staining based analysis relative to control; type: functional; details: dose 8-16 µg/ml, at 8 to 16 µg/mL
Staphylococcus aureus [21] = assay: Antibiofilm activity against Staphylococcus aureus B1 at 8 to 16 ug/ml incubated for 24 hrs by crystal violet staining based analysis relative to control; type: functional; details: dose 8-16 µg/ml, at 8 to 16 µg/mL
Staphylococcus aureus [22] = assay: Antibiofilm activity against Staphylococcus aureus by crystal violet staining based analysis; type: functional
Staphylococcus aureus [23] = assay: Antibiofilm activity against Staphylococcus aureus incubated for 3 hrs by XTT method; type: functional
[24] = Inhibition of quorum-sensing system in Staphylococcus epidermidis assessed as inhibition of AI-2 at 60 ug/ml by bioluminescence assay relative to control; details: dose 60.0 µg/ml

Compound: O=C1Nc2ccc(Br)cc2C1(c1c[nH]c2ccccc12)c1c[nH]c2ccccc12
Activity (Pseudomonas aeruginosa [1]): 49.32%
MBIC [2]: 5 µM

Compound: CCCC/C=C\CCCCCCCCCCCC=O
Activity (Pseudomonas aeruginosa [3]): 82.657%
Activity (Staphylococcus aureus [4]): 78.973%

Compound: CCCCCCCCCCCCCCCC(=O)OC[C@H]1O[C@H](O)[C@H](O)[C@@H](O)[C@@H]1O
Activity (Pseudomonas aeruginosa [5]): >50%
Activity (Pseudomonas aeruginosa [6]): >70%
Activity (Bacillus pumilus): >50%
Activity (Candida albicans [7]): >50%

Compound: CCCCCCC(C)/C(O)=C1\C(=O)[C@@H](C(C)O)N(C)C1=O (stereo partly drawn)
Activity (Candida albicans [8]): 80%

Compound: NC1=N[C@]23CCCN2C(=O)c2cc(Br)c(Br)n2[C@@H]3N1 [DIBROMOPHAKELLIN]
Activity (Escherichia coli): 50%

Compound: Cn1c(-c2nnc(-c3ccc(Cl)cc3Cl)o2)cc(Br)c1Br
MBIC (Staphylococcus aureus [9]): 0.39 µg/mL
MBIC [10]: 3.125 µg/mL
MBIC (Staphylococcus aureus [11]): 0.78 µg/mL

Compound: O=C1N[C@@H](Cc2ccc(O)cc2)C(=O)N2CCC[C@@H]12
Activity (Pseudomonas aeruginosa [12]): 48%

Compound: COc1cc(-c2ccccn2)nc(/C=N/O)c1S(C)(=O)=O
MBIC (Acinetobacter baumannii [13]): 32 µg/mL
MBIC (Acinetobacter baumannii [14]): 8 µg/mL

Compound: C[C@H](CC[C@H](C)C(C)(C)C)[C@H]1CC[C@H]2C3C[C@H](OS(=O)(=O)[O-])[C@H]4C[C@H](OS(=O)(=O)[O-])[C@@H](OS(=O)(=O)[O-])C[C@]4(C)[C@H]3CC[C@]12C.[Na+].[Na+].[Na+] (stereo partly drawn)
Activity (Streptococcus mutans [15]): 99.5%
Activity (Streptococcus mutans [16]): 85.2%

Compound: CC(=O)O[C@@H]1O[C@H]2OC(=O)C3=C(C)[C@@](C)([C@@]4(C)CCCC(C)(C)C4)CC[C@@H]1[C@H]32
Activity (Staphylococcus aureus [17]): 50%

Compound: COC(=O)CCN(CCCCCCCCCCCOCCc1ccc[n+](Cc2ccccc2)c1)C(=O)OC(C)(C)C.[Cl-]
Activity (Staphylococcus aureus [18]): 25%

Compound: COc1cc(-c2ccccn2)nc(CO)c1SC
Activity (Staphylococcus aureus [19]): >90%

Compound: C=C1CC[C@H]2[C@@](C)(CC[C@H]3C(C)(C)[C@@H](OC(C)=O)CC[C@]23C)[C@@H]1Cc1c(O)cc(C)oc1=O
Activity (Bacillus subtilis): 100%
Activity (Staphylococcus aureus [20]): 100%
Activity (Enterococcus faecalis): 100%
Activity (Staphylococcus aureus [21]): 100%

Compound: CCCCOC(=O)[C@]1(Cc2ccccc2)OC(=O)C(O)=C1c1ccccc1
MBIC (Staphylococcus aureus [22]): 6.1 µg/mL
MBIC (Staphylococcus aureus [23]): 97.7 µg/mL

inhibition [24]: > 50%
Compound: CCCCCCCCCCCCCCC=O
